Experimental data from US11464763B2, “Parasiticidal compositions comprising an isoxazoline active agent, methods and uses thereof” (BOEHRINGER INGELHEIM ANIMAL HEALTH USA INC., priority 2011, dated 2022).
≈ marks a conversion by molar mass, not a printed value.

What was measured:
Linognathus vituli = assay: Pour-on efficacy against Linognathus vituli (sucking lice) in cattle (Example 16); format: in vivo
Experimental: The efficacy of two pour-on formulations of the invention comprising isoxazoline Compound A at doses of 2.5 mg/kg and 10 mg/kg were tested against natural and induced infestations with Linognathus vituli (sucking lice) in cattle compared with an untreated control. Four healthy head of cattle weighing between 100 to 300 kg were used in each study group. Cattle in Group 1 were untreated (control). Cattle in Group 2 were treated on Day 0 with a pour-on formulation comprising Compound A at a concentration of 2.5% (w/v) in DES at a dose of 2.5 mg/kg; and cattle in Group 3 were treated on Day 0 with a pour-on formulation comprising Compound A at a concentration of 10% (w/v) in DES at a dose of 10 mg/kg. The formulation was applied by measuring the required amount of the solution into a marked disposable syringe and applying the material evenly along the mid-line of the back of each animal from the withers to the tail head.
Live lice (adults plus nymphs) were counted on days 2, 7, 14, 21, 28, 35, 42, 49 and 56 by counting lice on six selected sites approximately 5 cm×15 cm on the body surface of the animal by direct examination. In the absence of lice on the selected sites, a thorough body search was conducted. The total louse counts per animal were determined by summation of the live louse numbers at each site per animal. Tables 17A and 17B below show the efficacy of the two pour-on formulations against Linognathus vituli over 56 days. As the tables show, both pour-on formulations were efficacious through at least day 56 of the study with 100% efficacy observed starting day 7. Efficacy on day 2 of the study was greater than 90% in each of the study groups. The long lasting efficacy against Linognathus vituli from one topical treatment is unexpected and surprising.

A. americanum = assay: Efficacious plasma concentration (EC90) against A. americanum ticks in dogs (Example 13); format: in vivo, Amblyomma americanum; settings: for EC90 (concentration required to achieve 90% efficacy): plasma concentration
Experimental: Blood samples were collected from all dogs on Days −5, 0 (at 4 h and 12 h), 1, 2, 9, 16, 23, 30, 37 and 44. Plasma samples were analyzed for the concentration of Compound A using a LC/MS/MS method that was GLP validated for the analysis of the compound.
Plasma concentrations of Compound A from dogs in the studies of Examples 1 and 4 were determined according to the description in Example 1, and the plasma concentration versus % efficacy against A. americanum and D. variabilis were fit to a Sigmoidal Emax model. […] Since Compound A is systemically active, the lower concentration of the compound in the plasma required to achieve 90% efficacy from the topical compositions of the invention is surprising and unexpected.

Rhipicephalus sanguineus = assay: Spot-on efficacy against Rhipicephalus sanguineus ticks in dogs, three DES formulations (Example 6); format: in vivo; settings: for % Reduction: 48 h count
Experimental: A further study was conducted to examine the efficacy of a topical formulations comprising Compound A in three different formulations containing DES against ticks in dogs. Twenty-four beagles were studied to determine the effectiveness against induced infestations of Rhipicephalus sanguineus of spot-on formulations comprising Cmpd. A in different carriers administered at 4.0 mg/kg to dogs.
Treatment Group 1 dogs were treated with a placebo solution. Treatment Group 2 was treated with a formulation comprising 6% (w/v) Cmpd. A in DES; Treatment Group 3 were treated with a composition comprising 6% (w/v) Cmpd. A in 40% DES/DMI; and Treatment Group 4 were treated with a formulation comprising 6% (w/v) Cmpd. A in DES with 30% Capryol 90. All dogs were treated once topically on Day 0. Topical solutions were applied by parting the hair and applying the solution from a syringe directly onto the skin in a single spot on the midline of the neck between the base of the skull and the shoulder blades.
All dogs were infested with approximately 50 R. sanguineus on Days −1, 7, 14, 21, 28, 35 and 42. Ticks were counted upon removal from dogs on Days 2, 9, 16, 23, 30, 37, and 44. All ticks were counted upon removal at 48 (±3) hours post treatment or infestation.
The percent efficacies of the treated groups compared to the untreated control group were determined for the 48 hour post-treatment/infestation counts. Treatment Group 3 maintained ≥90% efficacy 48 hours after infestation at every sampling time from Day 9 through Day 44. Treatment Group 2 was able to maintain at least 90% efficacy 48 hours after infestation throughout the six weeks of the study.

R. sanguineus = assay: Efficacious plasma concentration (EC90) against R. sanguineus ticks in dogs (Example 13); format: in vivo, Rhipicephalus sanguineus; settings: for EC90 (concentration required to achieve 90% efficacy): plasma concentration

O=C(CNC(=O)c1ccc(C2=NOC(c3cc(Cl)cc(C(F)(F)F)c3)(C(F)(F)F)C2)c2ccccc12)NCC(F)(F)F (stereo not shown) [Compound A, 4-[5-[3-chloro-5-(trifluoromethyl)phenyl]-4,5-dihydro-5-(trifluoromethyl)-3-isoxazolyl]-N-[2-oxo-2-[(2,2,2-trifluoroethyl)amino]ethyl]-1-naphthalanecarboxamide]
% Reduction (Linognathus vituli; Group 2: pour-on 2.5% in DES, 2.5 mg/kg, Day 2): 92% | % Reduction (Linognathus vituli; Group 2: pour-on 2.5% in DES, 2.5 mg/kg, Day 7): 100% | % Reduction (Linognathus vituli; Group 2: pour-on 2.5% in DES, 2.5 mg/kg, Day 14): 100% | % Reduction (Linognathus vituli; Group 2: pour-on 2.5% in DES, 2.5 mg/kg, Day 21): 100% | % Reduction (Linognathus vituli; Group 2: pour-on 2.5% in DES, 2.5 mg/kg, Day 28): 100% | % Reduction (Linognathus vituli; Group 3: pour-on 10% in DES, 10 mg/kg, Day 2): 98% | % Reduction (Linognathus vituli; Group 3: pour-on 10% in DES, 10 mg/kg, Day 7): 100% | % Reduction (Linognathus vituli; Group 3: pour-on 10% in DES, 10 mg/kg, Day 14): 100% | % Reduction (Linognathus vituli; Group 3: pour-on 10% in DES, 10 mg/kg, Day 21): 100% | % Reduction (Linognathus vituli; Group 3: pour-on 10% in DES, 10 mg/kg, Day 28): 100% | efficacy against Linognathus vituli (Linognathus vituli; both pour-on formulations, starting day 7 through at least day 56): 100% | efficacy against Linognathus vituli (Linognathus vituli; each of the study groups, day 2): greater than 90% | % Reduction (Linognathus vituli; live lice counts, Group 2: pour-on 2.5% (w/v) in DES, 2.5 mg/kg, Day 35): 92% | % Reduction (Linognathus vituli; live lice counts, Group 2: pour-on 2.5% (w/v) in DES, 2.5 mg/kg, Day 42): 100% | % Reduction (Linognathus vituli; live lice counts, Group 2: pour-on 2.5% (w/v) in DES, 2.5 mg/kg, Day 49): 100% | % Reduction (Linognathus vituli; live lice counts, Group 2: pour-on 2.5% (w/v) in DES, 2.5 mg/kg, Day 56): 100% | % Reduction (Linognathus vituli; live lice counts, Group 3: pour-on 10% (w/v) in DES, 10 mg/kg, Day 35): 98% | % Reduction (Linognathus vituli; live lice counts, Group 3: pour-on 10% (w/v) in DES, 10 mg/kg, Day 42): 100% | % Reduction (Linognathus vituli; live lice counts, Group 3: pour-on 10% (w/v) in DES, 10 mg/kg, Day 49): 100% | % Reduction (Linognathus vituli; live lice counts, Group 3: pour-on 10% (w/v) in DES, 10 mg/kg, Day 56): 100% | concentration required to achieve 90% efficacy, lower than the concentration required from oral administration (A. americanum; dogs, topical vs oral): about 42% | EC90 (concentration required to achieve 90% efficacy) (A. americanum; dogs, topical compositions, Sigmoidal Emax model): 0.092 µg/mL (≈ 0.147 µM) | EC90 (concentration required to achieve 90% efficacy) (A. americanum; oral dosage form): 0.158 µg/mL (≈ 0.252 µM) | % Reduction (Rhipicephalus sanguineus; Group 2: 6% in DES, 4.0 mg/kg, Day 2): 93.2% | % Reduction (Rhipicephalus sanguineus; Group 2: 6% in DES, 4.0 mg/kg, Day 9): 100.0% | % Reduction (Rhipicephalus sanguineus; Group 2: 6% in DES, 4.0 mg/kg, Day 16): 100.0% | % Reduction (Rhipicephalus sanguineus; Group 2: 6% in DES, 4.0 mg/kg, Day 23): 100.0% | % Reduction (Rhipicephalus sanguineus; Group 2: 6% in DES, 4.0 mg/kg, Day 30): 97.8% | % Reduction (Rhipicephalus sanguineus; Group 2: 6% in DES, 4.0 mg/kg, Day 37): 95.3% | % Reduction (Rhipicephalus sanguineus; Group 2: 6% in DES, 4.0 mg/kg, Day 44): 97.5% | % Reduction (Rhipicephalus sanguineus; Group 3: 6% in 40% DES/DMI, 4.0 mg/kg, Day 2): 72.8% | % Reduction (Rhipicephalus sanguineus; Group 3: 6% in 40% DES/DMI, 4.0 mg/kg, Day 9): 100.0% | % Reduction (Rhipicephalus sanguineus; Group 3: 6% in 40% DES/DMI, 4.0 mg/kg, Day 16): 100.0% | % Reduction (Rhipicephalus sanguineus; Group 3: 6% in 40% DES/DMI, 4.0 mg/kg, Day 23): 100.0% | % Reduction (Rhipicephalus sanguineus; Group 3: 6% in 40% DES/DMI, 4.0 mg/kg, Day 30): 100.0% | % Reduction (Rhipicephalus sanguineus; Group 3: 6% in 40% DES/DMI, 4.0 mg/kg, Day 37): 93.5% | % Reduction (Rhipicephalus sanguineus; Group 3: 6% in 40% DES/DMI, 4.0 mg/kg, Day 44): 82.9% | % Reduction (Rhipicephalus sanguineus; Group 4: 6% in DES with 30% Capryol 90, 4.0 mg/kg, Day 2): 97.2% | % Reduction (Rhipicephalus sanguineus; Group 4: 6% in DES with 30% Capryol 90, 4.0 mg/kg, Day 9): 100.0% | % Reduction (Rhipicephalus sanguineus; Group 4: 6% in DES with 30% Capryol 90, 4.0 mg/kg, Day 16): 100.0% | % Reduction (Rhipicephalus sanguineus; Group 4: 6% in DES with 30% Capryol 90, 4.0 mg/kg, Day 23): 100.0% | % Reduction (Rhipicephalus sanguineus; Group 4: 6% in DES with 30% Capryol 90, 4.0 mg/kg, Day 30): 98.4% | % Reduction (Rhipicephalus sanguineus; Group 4: 6% in DES with 30% Capryol 90, 4.0 mg/kg, Day 37): 96.1% | % Reduction (Rhipicephalus sanguineus; Group 4: 6% in DES with 30% Capryol 90, 4.0 mg/kg, Day 44): 78.1% | efficacy 48 hours after infestation (Rhipicephalus sanguineus; Treatment Group 2, throughout the six weeks of the study): ≥ 90% | efficacy 48 hours after infestation (Rhipicephalus sanguineus; Treatment Group 3, Day 9 through Day 44): ≥ 90% | concentration required to achieve 90% efficacy, lower than the concentration required from oral administration (R. sanguineus; dogs, topical vs oral): ~32% | EC90 (concentration required to achieve 90% efficacy) (R. sanguineus; oral dosage form): 0.101 µg/mL (≈ 0.161 µM) | EC90 (concentration required to achieve 90% efficacy) (R. sanguineus; topical, separate study): 0.069 µg/mL (≈ 0.11 µM)
